Usually half-life stands for how long it takes for the measured level to halve. What is called AUC(0-inf) is total exposure, with the tail of the curve extrapolated. By Tmax is commonly meant the time from dosing to the highest level. Usually Cmax stands for the maximum level reached in the sampled fluid or tissue. As a reminder, the AUC(0-t) is exposure summed from dosing to a finite time, without extrapolation to infinity.

Series [1] is described as follows: Half life in ICR mouse at 10 mg/kg, po measured up to 24 hrs. Particulars: in vivo. In kind it is ADME, organism-based.
The nature of series [2]: Metabolic stability in monkey liver microsome assessed as half life preincubated for 5 mins followed by NADPH addition and measured after 120 mins by LC-MS/MS analysis. The class given is ADME, Macaca mulatta. Particulars: rhesus monkey, liver microsomes; time 125 min. On the technique in general: Liver microsomes are vesicles of endoplasmic reticulum, rich in cytochrome P450 enzymes.

The nature of series [3]: Metabolic stability in mouse liver microsome assessed as intrinsic clearance preincubated for 5 mins followed by NADPH addition and measured after 120 mins by LC-MS/MS analysis. Particulars: liver microsomes, time 125 min, read-out: CLH. In kind it is ADME.
Series [4] in a line: Metabolic stability in dog liver microsome assessed as intrinsic clearance preincubated for 5 mins followed by NADPH addition and measured after 120 mins by LC-MS/MS analysis. In kind it is ADME, Canis lupus familiaris. Particulars: liver microsomes, time 125 min, read-out: CLH.
Series [5] is described as follows: Metabolic stability in human liver microsome assessed as intrinsic clearance preincubated for 5 mins followed by NADPH addition and measured after 120 mins by LC-MS/MS analysis. The class given is ADME. Particulars: liver microsomes, time 125 min, read-out: CLH.
Series [6] can be described thus: Metabolic stability in rat liver microsome assessed as intrinsic clearance preincubated for 5 mins followed by NADPH addition and measured after 120 mins by LC-MS/MS analysis. Particulars: liver microsomes, time 125 min, read-out: CLH. The class given is ADME.
The nature of series [7]: AUC (0 to infinity) in ICR mouse at 10 mg/kg, po measured up to 24 hrs. The class given is ADME, organism-based. Particulars: in vivo.
A short description of series [8]: Metabolic stability in rat liver microsome assessed as half life preincubated for 5 mins followed by NADPH addition and measured after 120 mins by LC-MS/MS analysis. The class given is ADME. Particulars: liver microsomes, time 125 min.
A short description of series [9]: Tmax in ICR mouse at 10 mg/kg, po measured up to 24 hrs. The class given is ADME, organism-based. Particulars: in vivo.
Series [10] can be described thus: Cmax in ICR mouse at 10 mg/kg, po measured up to 24 hrs. In kind it is ADME, organism-based. Particulars: in vivo.
Series [11] can be described thus: AUC (0 to t) in ICR mouse at 10 mg/kg, po measured up to 24 hrs. In kind it is ADME, organism-based. Particulars: in vivo.
The nature of series [12]: Metabolic stability in dog liver microsome assessed as half life preincubated for 5 mins followed by NADPH addition and measured after 120 mins by LC-MS/MS analysis. In kind it is ADME, Canis lupus familiaris. Particulars: liver microsomes, time 125 min.
Series [13] in a line: Metabolic stability in monkey liver microsome assessed as intrinsic clearance preincubated for 5 mins followed by NADPH addition and measured after 120 mins by LC-MS/MS analysis. Particulars: rhesus monkey, liver microsomes; time 125 min; read-out: CLH. In kind it is ADME, Macaca mulatta.
Series [14] in a line: Metabolic stability in mouse liver microsome assessed as half life preincubated for 5 mins followed by NADPH addition and measured after 120 mins by LC-MS/MS analysis. In kind it is ADME. Particulars: liver microsomes, time 125 min.
Series [15] in a line: Metabolic stability in human liver microsome assessed as half life preincubated for 5 mins followed by NADPH addition and measured after 120 mins by LC-MS/MS analysis. In kind it is ADME. Particulars: liver microsomes, time 125 min.

In the case of `COc1ncnc(C2CC2)c1-c1nc(N2CCOC[C@H]2c2ccc(-c3nc(C(F)(F)F)cn3C(C)C)cc2)c2occc2n1`, the half-life in series [1] is 1.92 h; in [2], 0.997 h; in series [8], more than 2 h; in series [12], 1.92 h; in series [14], 1 h; in series [15] it was 1.43 h. The CLint scaled in series [3] is 90.8 mL/min/kg; in series [4], 30 mL/min/kg; in [5], 20.3 mL/min/kg; in series [6], less than 20.7 mL/min/kg; in [13], 33.9 mL/min/kg. In series [7], this compound registered an AUC(0-inf) of 14200 ng·h/mL. The time of peak concentration (Tmax) in [9] turned out to be 0.25 h. This compound came in with a Cmax in [10] of 3510 ng/mL. In [11], this compound gave an AUC(0-t) at 24 h of 13300 ng·h/mL.

These data come from ChEMBL document CHEMBL6096740, “Discovery and Optimization of a Series of Novel Morpholine-Containing USP1 Inhibitors” (J Med Chem, 2025).
